According to patent publication US8476037B2, “Method for screening of antiviral agents” (priority 2010, dated 2013):

Molecular target: M2(1-49) channel forming segment of the M2 protein (Influenza A virus, UniProt P0DOF5)
Type: cell-based

Chain of M2(1-49) channel forming segment of the M2 protein (P0DOF5 1-49 limits assumed): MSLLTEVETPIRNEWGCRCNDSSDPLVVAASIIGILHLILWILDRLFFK

**Q.** Which “expression of M2(1-49) protein in SPP culture” value does the source give for `Cl.NC12CC3CC(CC(C3)C1)C2` [amantadine, 1-aminoadamantane hydrochloride] here?
**A.** The value was “the M2(1-49) protein was expressed”.

**Q.** What about the “rescue of expression of M2(1-49)” value ([…], addition of amantadine) of the same compound?
**A.** The value was “rescued”.
